Key:
[1] = 65Zn2+ binding to immobilized peptide (dot-blot, Scatchard competition analysis); conditions: unlabeled metal ions 50 μM total
Experimental: ^65Zn^2+ Binding Studies—Dissolved peptides (1.2 nMol, unless other wise stated) were dot-blotted onto polyvinylidene difluoride membrane (0.2-μm pore size; Pierce Chemical Co.), washed twice with chelating buffer (200 μl×100 mM NaCl, 20 mM Tris-HCl, 1 mM EDTA, pH 7.4), then five times with blocking buffer (200 μl×100 mM NaCl, 20 mM Tris-HCl, 1 mM MnCl2, pH 7.4), and then incubated (60 min, 20° C.) with ^65Zn (unless otherwise stated 130,000 cpm, […] ^65ZnCl2 in 200 μl of blocking buffer±competing metal ion chloride). The dot-blot was then washed with blocking buffer (5×200 μl), the dot excised, placed in a test tube, and assayed by γ-counting (11% efficiency). The equilibration volume for stoichiometry estimates was regarded as 6×200 μl. The 214 nm UV absorbance of the unbound flow-through was assayed to determine the total amount of peptide remaining bound onto the membrane. […] To alter the pH, the ^65Zn incubation was carried out in the presence of 100 mM buffer: MOPS (pH 6.5-7.0), MES (pH 5.0-6.0), acetate (pH 3.5-4.5). The dot-blot apparatus was washed with detergent and EDTA (50 mM) then rinsed and siliconized between use.
Aliquots of Aβ were incubated (60 min) with ^65Zn^2+ in the presence of varying concentrations of unlabeled Zn^2+ (0.01-50 μM total). Values shown are means±S.D., n≧3. […] (FIG. 1b) depicts specificity of the Zn^2+ binding site for various metals. Aβ was incubated (60 min) with ^65 Zn^2+ (157 nM, 138,000 cpm) and competing unlabeled metal ions (50 μM total). […] Percent binding of total counts ^65Zn^2+/min added is corrected for the amounts (in nanomoles) of peptides adhering to the membrane. […] 157 nM ^65Zn (138,000 cpm) is used in this experiment to probe immobilized peptide (1.6 nmol).

[2] = molecular target: T1, human Aβ1-40 (Homo sapiens, UniProt P05067); experiment: Human Aβ1-40 aggregation (0.2μ filtration) after incubation with various metal ions; assay type: physicochemical; conditions: metal ions 3 μM, equimolar basis, peptide 1.6 μM
T1 construct: made in house; host or cells: chemical synthesis (solid-phase Fmoc)
Excerpt: The atomic number of the metal species is indicated. […] Data points are in duplicate.

T1 sequence (P05067 672-711): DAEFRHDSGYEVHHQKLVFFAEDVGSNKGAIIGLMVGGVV

Q: What does the source list for `[Zn+2]` [Zn^2+, zinc]?
A: competition of unlabeled metal ion with ^65Zn^2+ for Aβ [1]: capable of competing off the label; induction of aggregation of human Aβ1-40 among metal ions tested [2]: induce significant aggregation
